# Measured values as given in patent US7300939B2, “Substituted 1-propiolylpiperazine compounds, their preparation and use” (Gruenenthal GmbH, priority 2005, dated 2007).
# Molecular target: T1, mGluR5 receptor (Sus scrofa, UniProt I3LUI7)
# T1 construct: from tissue; host or cells: pig brain halves without medulla, cerebellum and pons
# Assay: [3H]-MPEP binding in the mGluR5 receptor binding assay (pig brain homogenate)
# Conditions: 10 μM; pig brain homogenate; 5 nM [3H]-MPEP
# Description: I. Method the Determination of the Inhibition of the [^3H]-MPEP Binding in the mGluR5 Receptor Binding Assay
# Pig brain homogenate is prepared by homogenization (Polytron PT 3000, Kinematica AG, 10,000 revolutions per minute 90 seconds) of pig brain halves without medulla, cerebellum and pons in a buffer solution having a pH of 8.0 (30 mM of hepes, Sigma, order no. H3375+1 tablet of Complete to 100 ml, Roche Diagnostics, order no. 1836145) in a ratio of 1:20 (brain weight/volume) and differential centrifugation at 900×g and 40,000×g. In each case 450 μg of protein from brain homogenate are incubated with 5 nM [^3H]-MPEP (Tocris, order no. R1212) (MPEP=2-methyl-6-(3-methoxyphenyl)ethynylpyridine) and the compounds to be investigated (10 μM in the test) in a buffer solution (as above) in 250 μl incubation batches in 96-well microtiter plates at room temperature 60 min.
# Thereafter, the batches are filtered with the aid of a Brandel cell harvester (Brandel, Robotic 9600 model) onto Unifilter plates with glass fiber filter mats (Perkin Elmer, order no. 6005177) and then rinsed with buffer solution (as above) 3 times with 250 μl per sample each time. The filter plates are then dried 60 min at 55° C. 30 μl Ultima Gold™ scintillator (Packard BioScience, order no. 6013159) are subsequently added per well and, after 3 hours, the samples are measured on a β-counter (Mikrobeta, Perkin Elmer). The non-specific binding is determined by addition of 10 μM of MPEP (Tocris, order no. 1212).
# T1 sequence (I3LUI7 19-1212): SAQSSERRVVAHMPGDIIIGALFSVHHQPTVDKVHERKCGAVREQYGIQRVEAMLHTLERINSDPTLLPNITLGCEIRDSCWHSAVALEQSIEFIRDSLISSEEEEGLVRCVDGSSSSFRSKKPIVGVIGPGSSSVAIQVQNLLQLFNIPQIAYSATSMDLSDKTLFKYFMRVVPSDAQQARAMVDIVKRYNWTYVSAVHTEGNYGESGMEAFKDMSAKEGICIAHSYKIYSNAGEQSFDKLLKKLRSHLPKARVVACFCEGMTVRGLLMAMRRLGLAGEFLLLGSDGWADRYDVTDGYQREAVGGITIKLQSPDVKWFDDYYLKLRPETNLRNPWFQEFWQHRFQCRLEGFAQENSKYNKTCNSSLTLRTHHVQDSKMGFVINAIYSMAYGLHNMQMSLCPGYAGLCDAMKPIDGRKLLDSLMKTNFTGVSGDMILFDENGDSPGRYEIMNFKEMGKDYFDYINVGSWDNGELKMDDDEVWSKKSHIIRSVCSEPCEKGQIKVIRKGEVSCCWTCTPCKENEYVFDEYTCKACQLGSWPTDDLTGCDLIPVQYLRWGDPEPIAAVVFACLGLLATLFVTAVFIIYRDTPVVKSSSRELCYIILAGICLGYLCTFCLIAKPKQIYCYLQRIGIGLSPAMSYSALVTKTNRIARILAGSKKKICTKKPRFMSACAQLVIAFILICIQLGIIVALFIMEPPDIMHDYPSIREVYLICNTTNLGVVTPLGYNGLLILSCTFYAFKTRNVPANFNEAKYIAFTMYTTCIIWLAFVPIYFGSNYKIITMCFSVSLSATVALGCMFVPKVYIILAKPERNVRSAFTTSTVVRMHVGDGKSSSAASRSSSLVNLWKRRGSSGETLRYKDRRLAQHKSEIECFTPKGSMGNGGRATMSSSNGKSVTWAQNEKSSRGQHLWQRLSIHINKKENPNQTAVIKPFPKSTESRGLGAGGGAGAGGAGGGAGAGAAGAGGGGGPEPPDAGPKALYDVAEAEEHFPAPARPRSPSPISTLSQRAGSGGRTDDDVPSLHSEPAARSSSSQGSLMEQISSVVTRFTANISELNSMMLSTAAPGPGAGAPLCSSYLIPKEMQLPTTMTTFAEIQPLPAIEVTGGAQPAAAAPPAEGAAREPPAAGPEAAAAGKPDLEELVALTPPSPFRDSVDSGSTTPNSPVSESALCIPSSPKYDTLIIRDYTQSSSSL
row,Structure (SMILES),mGluR5-receptor (% inhibition 10 μM) in pigs
1,"COc1ccc(Br)c(C#CC(=O)N2CCN(c3nccs3)CC2)c1 [CCC23, 4-(Thiazol-2-yl)-1-(3-(2-bromo-5-methoxyphenyl)propiolyl)piperazine]",30%
2,"Cc1ccc(C#CC(=O)N2CCN(c3ncc(C)s3)CC2)cc1 [CCC33, 4-(5-Methylthiazol-2-yl)-1-(3-(tol-4-yl)propiolyl)piperazine]",43%
3,"O=C(C#Cc1cccc(F)c1)N1CCN(c2nc(-c3ccccc3)ns2)CC1 [CCC4, 4-(3-Phenyl-1,2,4-thiadiazol-5-yl)-1-(3-(3-fluorophenyl)propiolyl)piperazine]",59%
4,"Cc1cccc(C#CC(=O)N2CCN(c3nc(C)cs3)CC2)c1 [CCC31, 4-(4-Methylthiazol-2-yl)-1-(3-(tol-3-yl)propiolyl)piperazine]",93%
5,"N#Cc1ccccc1C#CC(=O)N1CCN(c2nccs2)CC1 [Example AAA15, 4-(Thiazol-2-yl)-1-(3-(2-cyanophenyl)propiolyl)piperazine]",54%
6,"N#Cc1cccc(C#CC(=O)N2CCN(c3nccs3)CC2)c1 [Example AAA16, 4-(Thiazol-2-yl)-1-(3-(3-cyanophenyl)propiolyl)piperazine]",93%
7,"C[C@@H]1CN(c2nccs2)CCN1C(=O)C#Cc1ccccc1 [Example AAA65, (R)-2-Methyl-4-(thiazol-2-yl)-1-(3-phenylpropiolyl)piperazine]",93%
8,"Cl.O=C(C#Cc1ccccc1C(F)(F)F)N1CCN(c2nccs2)CC1 [Example AAA57, 4-(Thiazol-2-yl)-1-(3-(2-trifluoromethylphenyl)propiolyl)piperazine hydrochloride]",81%
9,"COc1ccc(C#CC(=O)N2CCN(c3nccs3)CC2)cc1 [Example AAA14, 4-(Thiazol-2-yl)-1-(3-(4-methoxyphenyl)propiolyl)piperazine]",34%
10,"O=C(C#Cc1ccc(O)cc1)N1CCN(c2nccs2)CC1 [Example AAA5, 4-(Thiazol-2-yl)-1-(3-(4-hydroxyphenyl)propiolyl)piperazine]",35%
11,"O=C(C#Cc1ccsc1)N1CCN(c2nccs2)CC1 [Example AAA11, 4-(Thiazol-2-yl)-1-(3-(3-thienyl)propiolyl)piperazine]",52%
12,"N#Cc1cc(C#CC(=O)N2CCN(c3nccs3)CC2)ccc1F [Example AAA41, 4-(Thiazol-2-yl)-1-(3-(3-cyano-4-fluorophenyl)propiolyl)piperazine]",78%
13,"Cn1ccc2cc(C#CC(=O)N3CCN(c4nccs4)CC3)ccc21 [Example AAA39, 4-(Thiazol-2-yl)-1-(3-(1-methyl-indol-5-yl)propiolyl)piperazine]",74%
14,"CSc1cccc(C#CC(=O)N2CCN(c3nccs3)CC2)c1 [Example AAA40, 4-(Thiazol-2-yl)-1-(3-(3-methylmercaptophenyl)propiolyl)piperazine]",80%
15,"O=C(C#Cc1ccncc1)N1CCN(c2nccs2)CC1 [Example AAA34, 4-(Thiazol-2-yl)-1-(3-pyrid-4-ylpropiolyl)piperazine]",71%
16,"O=C(C#Cc1ccccn1)N1CCN(c2nccs2)CC1 [Example AAA32, 4-(Thiazol-2-yl)-1-(3-pyrid-2-ylpropiolyl)piperazine]",57%
17,"COc1ccccc1C#CC(=O)N1CCN(c2nccs2)CC1 [Example AAA12, 4-(Thiazol-2-yl)-1-(3-(2-methoxyphenyl)propiolyl)piperazine]",34%

# Second part, the compound after the results:
row,mGluR5-receptor (% inhibition 10 μM) in pigs,Structure (SMILES)
1,76%,"CNC(=O)c1cnc(N2CCN(C(=O)C#Cc3ccccc3)CC2)s1 [Example AAA80, 4-(5-Methylaminocarbonylthiazol-2-yl)-1-(3-phenylpropiolyl)piperazine]"
2,14%,"CN(C)C(=O)C#CC(=O)N1CCN(c2nccs2)CC1 [Example AAA00114, 4-(Thiazol-2-yl)-1-(dimethylcarbamoylpropiolyl)piperazine]"
3,17%,"C[S+]([O-])c1cccc(C#CC(=O)N2CCN(c3nccs3)CC2)c1 (stereo not drawn) [Example AAA00115, 4-(Thiazol-2-yl)-1-(3-(3-methylsulfinylphenyl)propiolyl)piperazine]"
4,61%,"COc1nsc(N2CCN(C(=O)C#Cc3ccccc3)CC2)n1 [Example AAA00102, 4-(3-Methoxy-1,2,4-thiadiazol-5-yl)-1-(3-phenylpropiolyl)piperazine]"
5,27%,"CN(C)c1cccc(C#CC(=O)N2CCN(c3nccs3)CC2)c1 [Example AAA00113, 4-(Thiazol-2-yl)-1-(3-(3-dimethylaminophenyl)propiolyl)piperazine]"
6,93%,"CC1CN(c2nccs2)CCN1C(=O)C#Cc1ccccc1.Cl (stereo not drawn) [Example AAA66, 2-Methyl-4-(thiazol-2-yl)-1-(3-phenylpropiolyl)piperazine hydrochloride]"
7,74%,"O=C(C#Cc1ccco1)N1CCN(c2nccs2)CC1 [Example AAA73, 4-(Thiazol-2-yl)-1-(3-(2-furyl)propiolyl)piperazine]"
8,91%,"O=C(C#Cc1ccccc1)N1CCN(c2nc(Cl)cs2)CC1 [Example AAA94, 4-(4-Chlorothiazol-2-yl)-1-(3-phenylpropiolyl)piperazine]"
9,68%,"Cc1noc(-c2cnc(N3CCN(C(=O)C#Cc4ccccc4)CC3)s2)n1 [Example AAA00106, 4-(5-(3-Methyl-1,2,4-oxadiazol-5-yl)thiazol-2-yl)-1-(3-phenylpropiolyl)piperazine]"
10,31%,"O=C(C#Cc1ccccc1)N1CCN(c2ncc([N+](=O)[O-])s2)CC1 [Example AAA86, 4-(5-Nitrothiazol-2-yl)-1-(3-phenylpropiolyl)piperazine]"
11,89%,"CCOC(=O)c1csc(N2CCN(C(=O)C#Cc3ccccc3)CC2)n1 [Example AAA77, 4-(4-Carboxy-thiazol-2-yl)-1-(3-phenylpropiolyl)piperazine ethyl ester]"
12,87%,"Cc1csc(N2CCN(C(=O)C#Cc3ccccc3)CC2)n1 [Example AAA92, 4-(4-Methylthiazol-2-yl)-1-(3-phenylpropiolyl)piperazine]"
13,87%,"O=C(C#Cc1ccccc1)N1CCN(c2nc(-c3ccccc3)cs2)CC1 [Example AAA99, 4-(4-Phenylthiazol-2-yl)-1-(3-phenylpropiolyl)piperazine]"
14,94%,"Cc1cccc(C#CC(=O)N2CCN(c3nccs3)CC2C)c1.Cl (stereo not drawn) [Example AAA67, 2-Methyl-4-(thiazol-2-yl)-1-(3-(3-tolyl)propiolyl)piperazine hydrochloride]"

# Same assay, conditions: Table II; unit inferred
row,Structure (SMILES),IC50
1,"O=C(C#Cc1ccccc1O)N1CCN(c2nccs2)CC1 [Example AAA4, 4-(Thiazol-2-yl)-1-(3-(2-hydroxyphenyl)propiolyl)piperazine]",0.45 µM
2,"O=C(C#Cc1cccs1)N1CCN(c2nccs2)CC1 [Example AAA10, 4-(Thiazol-2-yl)-1-(3-(2-thienyl)propiolyl)piperazine]",0.98 µM
3,"CC1CN(c2nccs2)CCN1C(=O)C#Cc1cccc(C#N)c1 (stereo not drawn) [AAA00123, 2-Methyl-4-(thiazol-2-yl)-1-(3-(3-cyanophenyl)propiolyl)piperazine]",0.019 µM
4,"O=C(C#Cc1ccc(F)cc1F)N1CCN(c2nccs2)CC1 [CCC22, 4-(Thiazol-2-yl)-1-(3-(2,4-difluorophenyl)propiolyl)piperazine]",10.5 µM
5,"O=C(C#Cc1ccc2[nH]ccc2c1)N1CCN(c2nccs2)CC1 [Example AAA9, 4-(Thiazol-2-yl)-1-(3-(indol-5-yl)propiolyl)piperazine]",0.7 µM
6,"Cc1csc(C#CC(=O)N2CCN(c3nccs3)CC2)c1 [AAA00118, 4-(Thiazol-2-yl)-1-(3-(4-methylthiophen-2-yl)propiolyl)piperazine]",0.093 µM
7,"CC(C)(C)C1CN(c2nccs2)CCN1C(=O)C#Cc1ccccc1 (stereo not drawn) [AAA00121, 2-tert-Butyl-4-(thiazol-2-yl)-1-(3-phenylpropiolyl)piperazine]",0.11 µM
8,"CC1CN(c2nccs2)CCN1C(=O)C#Cc1cccc(Cl)c1 (stereo not drawn) [AAA00119, 2-Methyl-4-(thiazol-2-yl)-1-(3-(3-chlorophenyl)propiolyl)piperazine]",0.009 µM

# Results, then the compound that gave them:
row,IC50,Structure (SMILES)
1,0.56 µM,"CNc1cccc(C#CC(=O)N2CCN(c3nccs3)CC2)c1 [Example AAA00112, 4-(Thiazol-2-yl)-1-(3-(3-methylaminophenyl)propiolyl)piperazine]"
2,1.39 µM,"Cc1cc(F)cc(C#CC(=O)N2CCN(c3nccs3)CC2)c1 [Example AAA00110, 4-(Thiazol-2-yl)-1-(3-(3-fluoro-5-methylphenyl)propiolyl)piperazine]"
3,0.17 µM,"CCOC(=O)c1cnc(N2CCN(C(=O)C#Cc3ccccc3)CC2)s1 [Example AAA76, 4-(5-Carboxy-thiazol-2-yl)-1-(3-phenylpropiolyl)piperazine ethyl ester]"
